This passage reports IC50 results from patent US11267824B2, “Inhibitors of indoleamine 2,3-dioxygenase and/or tryptophan 2,3-dioxygenase” (IDORSIA PHARMACEUTICALS LTD, priority 2017, dated 2022).

SMILES strings stand for the structures.

The target in assay [1] is Recombinant full-length human IDO1 (Homo sapiens (Human), UniProt P14902). The experiment in a line: IDO1 enzymatic assay (IDO inhibitory activity). The format is biochemical. As to conditions: 2 nM enzyme, 5 μM L-tryptophan, pH6.5, 30 min pre-incubation, NFK quantified by LCMS; mean values if measured multiple times; read-out: hIDO activity (IC50 in nM). In short, it runs like this: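 N-His-tagged enzyme from E. coli at 2 nM in 37.5 mM phosphate pH6.5 with ascorbate, methylene blue, catalase; compounds 10 μM–0.5 nM, 0.6% DMSO, pre-incubated 30 min RT, then 5 μM L-tryptophan for 30 min RT. NFK quantified by LCMS against d5-tryptophan; IC50 from duplicate four-parameter fit, means where repeated.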
Chain of Recombinant full-length human IDO1 (P14902 whole entry): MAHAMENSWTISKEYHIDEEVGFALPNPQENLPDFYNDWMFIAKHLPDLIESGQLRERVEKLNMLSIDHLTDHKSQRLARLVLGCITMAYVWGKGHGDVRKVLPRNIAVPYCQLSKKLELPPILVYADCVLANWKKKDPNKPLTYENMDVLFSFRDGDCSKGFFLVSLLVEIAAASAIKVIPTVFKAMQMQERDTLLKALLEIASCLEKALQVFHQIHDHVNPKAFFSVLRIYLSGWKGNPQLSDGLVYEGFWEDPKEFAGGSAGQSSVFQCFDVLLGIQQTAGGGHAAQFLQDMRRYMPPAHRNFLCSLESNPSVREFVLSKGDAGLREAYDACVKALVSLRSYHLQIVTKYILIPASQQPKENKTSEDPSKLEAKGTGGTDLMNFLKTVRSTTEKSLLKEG

Assay [2] deals with Recombinant human TDO comprising amino acids 19-407 (Homo sapiens (Human), UniProt P48775). The experiment in a line: TDO2 enzymatic assay (TDO inhibitory activity). The assay is classed as biochemical. Conditions: 15 nM enzyme, 200 μM L-tryptophan, pH7, 30 min pre-incubation, NFK quantified by LCMS; mean values if measured multiple times; read-out: hTDO activity (IC50 in nM). In short, it runs like this: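 His-tagged enzyme (15 nM, E. coli-expressed) in pH 7 phosphate buffer with ascorbate, catalase, BSA, Tween 20, 0.6% DMSO; 30 min RT pre-incubation with compound (10 μM–0.5 nM), then 200 μM L-tryptophan for 30 min RT. N′-formylkynurenine quantified by LCMS against deuterated tryptophan; IC50 by four-parameter fit, duplicates.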
Chain of Recombinant human TDO comprising amino acids 19-407 (P48775 19-406 limits assumed): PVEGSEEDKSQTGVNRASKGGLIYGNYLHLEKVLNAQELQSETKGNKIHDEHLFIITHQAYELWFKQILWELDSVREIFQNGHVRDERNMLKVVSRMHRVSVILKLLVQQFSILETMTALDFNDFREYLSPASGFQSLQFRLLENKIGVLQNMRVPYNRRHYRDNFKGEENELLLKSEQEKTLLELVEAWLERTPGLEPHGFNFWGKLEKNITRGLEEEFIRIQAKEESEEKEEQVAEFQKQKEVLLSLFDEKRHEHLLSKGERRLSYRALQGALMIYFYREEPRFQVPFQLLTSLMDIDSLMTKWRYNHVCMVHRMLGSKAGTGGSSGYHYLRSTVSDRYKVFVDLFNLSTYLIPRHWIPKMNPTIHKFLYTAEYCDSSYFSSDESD

For `CC1([C@H](O)c2c(C3CC3)sc3cncn23)CCCC1` [Example 48a, (S)-(2-Cyclopropyl-imidazo[5,1-b]thiazol-3-yl)-(1-methyl-cyclopentyl)-methanol], the IC50 came to 4.37 nM in assay [1] and 42.5 nM in assay [2].
On to `CC(C)(C)c1sc2cncn2c1C(O)C1CCCCC1` (racemic) [Example 11, rac-(2-(tert-Butyl)imidazo[5,1-b]thiazol-3-yl)(cyclohexyl)methanol], for which the values for the IC50 in assay [1] and in assay [2] were 895 nM and 2050 nM, respectively.
For `OC(c1cccs1)c1c(C2CC2)sc2cncn12` (racemic) [Example 171, rac-(2-Cyclopropyl-imidazo[5,1-b]thiazol-3-yl)-thiophen-2-yl-methanol], the values for the half-inhibitory concentration (IC50) in assay [1] and in assay [2] were 90.3 nM and 1580 nM, respectively.
With `OC(c1c(-c2ccccc2F)sc2cncn12)C1CCCCC1` (racemic) [Example 182, rac-Cyclohexyl-[2-(2-fluoro-phenyl)-imidazo[5,1-b]thiazol-3-yl]-methanol], the IC50 in assay [1] is 441 nM; in assay [2] it was 239 nM.
For the molecule `OC(c1c(Cl)sc2cncn12)C1CC1` (racemic) [Example 19, rac-(2-Chloro-imidazo[5,1-b]thiazol-3-yl)-cyclopropyl-methanol], the IC50 in assay [1] was 1040 nM; in assay [2] it was 2660 nM.
For `CC(C)n1cc(C(O)c2c(C3CC3)sc3cncn23)cn1` (racemic) [Example 188, rac-(2-Cyclopropyl-imidazo[5,1-b]thiazol-3-yl)-(1-isopropyl-1H-pyrazol-4-yl)-methanol], the IC50 in assay [1] was 111 nM; in assay [2] it was over 10200 nM.
As for `CC1(C(O)c2c(C3CC3)sc3cncn23)CCCCC1` (racemic) [Example 105, rac-(2-Cyclopropyl-imidazo[5,1-b]thiazol-3-yl)-(1-methyl-cyclohexyl)-methanol], the half-maximal inhibitory concentration (IC50) is 10.6 nM in assay [1] and 104 nM in assay [2].
With `OC(c1c(-c2ccsc2)sc2cncn12)C1CCCCC1` (racemic) [Example 94, rac-Cyclohexyl-(2-thiophen-3-yl-imidazo[5,1-b]thiazol-3-yl)-methanol], the results for the IC50 in assay [1] and in assay [2] were 144 nM and 181 nM, respectively.
As for `CC1CCC(C(O)c2c(C3CC3)sc3cncn23)C1` (centres unmarked) [Example 30, (2-Cyclopropyl-imidazo[5,1-b]thiazol-3-yl)-(3-methyl-cyclopentyl)-methanol], the figures for the IC50 in assay [1] and in assay [2] were 12.1 nM and 454 nM, respectively.
Regarding `OC(CC1CCCC(C(F)(F)F)C1)c1c(C2CC2)sc2cncn12` (centres unmarked) [Example 102, 1-(2-Cyclopropyl-imidazo[5,1-b]thiazol-3-yl)-2-(3-trifluoromethyl-cyclohexyl)-ethanol], the 50% inhibitory concentration (IC50) in assay [1] amounted to 87.6 nM; in assay [2], 818 nM.
In the case of `CCC1CCCC1C(O)c1c(C2CC2)sc2cncn12` (centres unmarked) [Example 123, (2-Cyclopropyl-imidazo[5,1-b]thiazol-3-yl)-(2-ethyl-cyclopentyl)-methanol], the figures for the IC50 in assay [1] and in assay [2] were 29.4 nM and 228 nM, respectively.
On the same counts, the results for `COc1cccc(C(O)c2c(C3CC3)sc3cncn23)c1` (racemic) [Example 56, rac-(2-Cyclopropyl-imidazo[5,1-b]thiazol-3-yl)-(3-methoxy-phenyl)-methanol] are 251 nM and 3310 nM.
As for `OC(Cc1c(Cl)cccc1Cl)c1c(C2CC2)sc2cncn12` (racemic) [Example 60, rac-1-(2-Cyclopropyl-imidazo[5,1-b]thiazol-3-yl)-2-(2,6-dichloro-phenyl)-ethanol], the results for the IC50 in assay [1] and in assay [2] were 287 nM and 455 nM, respectively.
Consider `CC1CC(C)(C)CC1C(O)c1c(C2CC2)sc2cncn12` (centres unmarked) [Example 120, (2-Cyclopropyl-imidazo[5,1-b]thiazol-3-yl)-(2,4,4-trimethyl-cyclopentyl)-methanol], for which the results for the half-inhibitory concentration (IC50) in assay [1] and in assay [2] were 172 nM and 247 nM, respectively.
On the same counts, the results for `Cc1sc2cncn2c1[C@@H](O)CC1CCCCC1` [Example 5a, (S)-2-Cyclohexyl-1-(2-methyl-imidazo[5,1-b]thiazol-3-yl)-ethanol] are 16.5 nM and 375 nM.
On the same counts, the results for `CC1(C)CC([C@H](O)c2c(C3CC3)sc3cncn23)C1` [Example 36a, (S)-(2-Cyclopropyl-imidazo[5,1-b]thiazol-3-yl)-(3,3-dimethyl-cyclobutyl)-methanol] are 5.03 nM and 246 nM.
As for `Cc1ccccc1C(O)c1c(C2CC2)sc2cncn12` (racemic) [Example 148, rac-(2-Cyclopropyl-imidazo[5,1-b]thiazol-3-yl)-o-tolyl-methanol], the concentration for half-maximal inhibition (IC50) in assay [1] came to 1160 nM; in assay [2] it was 2530 nM.
For `OC(c1cn(C2CCC2)nn1)c1c(C2CC2)sc2cncn12` (racemic) [Example 196, rac-(1-Cyclobutyl-1H-[1,2,3]triazol-4-yl)-(2-cyclopropyl-imidazo[5,1-b]thiazol-3-yl)-methanol], the IC50 is 183 nM in assay [1] and over 10200 nM in assay [2].
For `CCc1sc2cncn2c1[C@@H](O)C1CCCCC1` [Example 96a, (S)-Cyclohexyl-(2-ethyl-imidazo[5,1-b]thiazol-3-yl)-methanol], the IC50 in assay [1] is 5.32 nM; in assay [2], 20 nM.
On the same counts, the results for `CC1CCCC(CC(O)c2c(C3CC3)sc3cncn23)C1` (centres unmarked) [Example 29, 1-(2-Cyclopropyl-imidazo[5,1-b]thiazol-3-yl)-2-(3-methyl-cyclohexyl)-ethanol] are 21.4 nM and 509 nM.
As for `CCC(C1CCCCC1)C(O)c1c(C2CC2)sc2cncn12` (centres unmarked) [Example 66, 2-Cyclohexyl-1-(2-cyclopropyl-imidazo[5,1-b]thiazol-3-yl)-butan-1-ol], the IC50 in assay [1] was 1570 nM; in assay [2], over 10200 nM.
On the same counts, the results for `COC1CCCC(CC(O)c2c(C3CC3)sc3cncn23)C1` (centres unmarked) [Example 114, 1-(2-Cyclopropyl-imidazo[5,1-b]thiazol-3-yl)-2-(3-methoxy-cyclohexyl)-ethanol] are 40.5 nM and 1830 nM.
In the case of `CC1(C)CCC(C(O)c2c(C(F)(F)F)sc3cncn23)C1` (centres unmarked) [Example 108, (3,3-Dimethyl-cyclopentyl)-(2-trifluoromethyl-imidazo[5,1-b]thiazol-3-yl)-methanol], the IC50 worked out at 56.7 nM in assay [1] and 922 nM in assay [2].
For the molecule `OC(CC1CC(F)(F)C1)c1c(C2CC2)sc2cncn12` (racemic) [Example 21, rac-1-(2-Cyclopropyl-imidazo[5,1-b]thiazol-3-yl)-2-(3,3-difluoro-cyclobutyl)-ethanol], the IC50 in assay [1] is 113 nM; in assay [2], 470 nM.
On the same counts, the results for `CC(C)C1CCC(C(O)c2c(C3CC3)sc3cncn23)CC1` (racemic) [Example 72, rac-(2-Cyclopropyl-imidazo[5,1-b]thiazol-3-yl)-(4-isopropyl-cyclohexyl)-methanol] are 102 nM and 1470 nM.
For `OC(c1c(C2CC2)sc2cncn12)C1CCc2ccccc2C1` (centres unmarked) [Example 80, (2-Cyclopropyl-imidazo[5,1-b]thiazol-3-yl)-(1,2,3,4-tetrahydro-naphthalen-2-yl)-methanol], the half-inhibitory concentration (IC50) in assay [1] was found to be 34.2 nM; in assay [2] it was 1810 nM.
`Cc1sc2cncn2c1C(O)C#Cc1ccccc1` (racemic) [Example 158, rac-1-(2-Methyl-imidazo[5,1-b]thiazol-3-yl)-3-phenyl-prop-2-yn-1-ol]: the figures for the 50% inhibitory concentration (IC50) in assay [1] and in assay [2] were 459 nM and over 10200 nM, respectively.
Consider `Cn1cc(-c2sc3cncn3c2C(O)C2CCCCC2)cn1` (racemic) [Example 125, rac-Cyclohexyl-[2-(1-methyl-1H-pyrazol-4-yl)-imidazo[5,1-b]thiazol-3-yl]-methanol], for which the IC50 in assay [1] is 209 nM; in assay [2], over 10200 nM.
As for `CC1CCCC(CC(O)c2c(C(F)(F)F)sc3cncn23)C1` (centres unmarked) [Example 122, 2-(3-Methyl-cyclohexyl)-1-(2-trifluoromethyl-imidazo[5,1-b]thiazol-3-yl)-ethanol], the IC50 in assay [1] is 205 nM; in assay [2], 3810 nM.
On the same counts, the results for `OC(c1c(C2CC2)sc2cncn12)C1CCCCC1` (racemic) [Example 1, rac-Cyclohexyl(2-cyclopropylimidazo[5,1-b]thiazol-3-yl)methanol] are 15.1 nM and 288 nM.
`CC(C)CC1CCC(C(O)c2c(C3CC3)sc3cncn23)C1` (centres unmarked) [Example 78, (2-Cyclopropyl-imidazo[5,1-b]thiazol-3-yl)-(3-isobutyl-cyclopentyl)-methanol]: the results for the IC50 in assay [1] and in assay [2] were 72.3 nM and 2010 nM, respectively.
Turning to `O[C@H](c1c(C2CC2)sc2cncn12)[C@H]1CC[C@H](c2ccccc2)CC1` [Example 73a, (S)-(2-Cyclopropyl-imidazo[5,1-b]thiazol-3-yl)-(trans-4-phenyl-cyclohexyl)-methanol], the figures for the IC50 in assay [1] and in assay [2] were 6.45 nM and 2300 nM, respectively.
On the same counts, the results for `OC(CC1CCC(c2ccccc2)C1)c1c(C2CC2)sc2cncn12` (centres unmarked) [Example 35, 1-(2-Cyclopropyl-imidazo[5,1-b]thiazol-3-yl)-2-(3-phenyl-cyclopentyl)-ethanol] are 114 nM and 1570 nM.
On the same counts, the results for `CCc1sc2cncn2c1C(O)c1ccccc1` (racemic) [Example 176, rac-(2-Ethyl-imidazo[5,1-b]thiazol-3-yl)-phenyl-methanol] are 59.3 nM and 195 nM.

In general, IC50 refers to the concentration that gives 50% inhibition.
